Experiments:
Type in all cases: in vivo
[1] = tested on: morningglory (Ipomea lacunosa or Ipomea hederacea); assay: Postemergence herbicidal activity, morningglory; conditions: rate of application 0.3 Kg/Ha, rated after 12-17 days
Procedure: (§1) The benzofused heterocyclic compounds of this invention were tested for pre- and postemergence herbicidal activity using a variety of crops and weeds. The test plants included soybean (Glycine max var. Winchester), field corn (Zea mays var. Pioneer 3732), wheat (Triticum aestivum var. Lew), morningglory (Ipomea lacunosa or Ipomea hederacea), velvetleaf (Abutilon theophrasti), green foxtail (Setaria viridis), Johnsongrass (Sorghum halepense), blackgrass (Aloepecurus myosuroides), common chickweed (Stellaria media), and common cocklebur (Xanthium strumarium L.).
(§2) For preemergence testing, two disposable fiber flats (8 cm×15 cm×25 cm) for each rate of application of each candidate herbicide were filled to an approximate depth of 6.5 cm with steam-sterilized sandy loam soil. The soil was leveled and impressed with a template to provide five evenly spaced furrows 13 cm long and 0.5 cm deep in each flat. Seeds of soybean, wheat, corn, green foxtail, and johnsongrass were planted in the furrows of the first flat, and seeds of velvetleaf, morningglory, common chickweed, cocklebur, and blackgrass were planted in the furrows of the second flat. The five-row template was employed to firmly press the seeds into place. A topping soil of equal portions of sand and sandy loam soil was placed uniformly on top of each flat to a depth of approximately 0.5 cm. Flats for postemergence testing were prepared in the same manner except that they were planted 9-14 days prior to the preemergence flats and were placed in a greenhouse and watered, thus allowing the seeds to germinate and the foliage to develop.
(§3) In both pre- and postemergence tests, a stock solution of the candidate herbicide was prepared by dissolving 0.27 g of the compound in 20 mL of water/acetone (50/50) containing 0.5% v/v sorbitan monolaurate. For an application rate of 3000 g/ha of herbicide a 10 mL portion of the stock solution was diluted with water/acetone (50/50) to 45 mL.
(§4) The preemergence flats were initially subjected to a light water spray. The four flats were placed two by two along a conveyor belt (i.e., the two preemergence followed by the two postemergence flats). The conveyor belt fed under a spray nozzle mounted about ten inches above the post-emergent foliage. The preemergent flats were elevated on the belt so that the soil surface was at the same level below the spray nozzle as the foliage canopy of the postemergent plants. The spray of herbicidal solution was commenced and once stabilized, the flats were passed under the spray at a speed to receive a coverage equivalent of 100 L/ha. At this coverage the application rates are those shown in the above table for the individual herbicidal solutions. The preemergence flats were watered immediately thereafter, placed in the greenhouse and watered regularly at the soil surface. The postemergence flats were immediately placed in the green-house and not watered until 24 hours after treatment with the test solution. Thereafter they were regularly watered at ground level. After 12-17 days the plants were examined and the phytotoxicity data were recorded.
(§5) Phytotoxicity data were taken as percent control. Percent control was determined by a method similar to the 0 to 100 rating system disclosed in “Research Methods in Weed Science,” 2nd ed., B. Truelove, Ed.; Southern Weed Science Society; Auburn University, Auburn, Ala., 1977.

[2] = tested on: green foxtail (Setaria viridis); assay: Preemergence herbicidal activity, green foxtail; conditions: Rate of Application 0.3 Kg/Ha, examined after 12-17 days
Procedure: as §1, §2, §3, §4, §5

[3] = tested on: Johnsongrass (Sorghum halepense); assay: Postemergence herbicidal activity, johnsongrass; conditions: rate of application 0.3 Kg/Ha, rated after 12-17 days
Procedure: as §1, §2, §3, §4, §5

[4] = tested on: wheat (Triticum aestivum var. Lew); assay: Preemergence herbicidal activity, wheat; conditions: Rate of Application 0.3 Kg/Ha, examined after 12-17 days
Procedure: as §1, §2, §3, §4, §5

[5] = tested on: common cocklebur (Xanthium strumarium L.); assay: Postemergence herbicidal activity, cocklebur; conditions: rate of application 0.3 Kg/Ha, rated after 12-17 days
Procedure: as §1, §2, §3, §4, §5

[6] = tested on: wheat (Triticum aestivum var. Lew); assay: Postemergence herbicidal activity, wheat; conditions: rate of application 0.3 Kg/Ha, rated after 12-17 days
Procedure: as §1, §2, §3, §4, §5

[7] = tested on: field corn (Zea mays var. Pioneer 3732); assay: Postemergence herbicidal activity, corn; conditions: rate of application 0.3 Kg/Ha, rated after 12-17 days
Procedure: as §1, §2, §3, §4, §5

[8] = tested on: soybean (Glycine max var. Winchester); assay: Preemergence herbicidal activity, soybean; conditions: Rate of Application 0.3 Kg/Ha, examined after 12-17 days
Procedure: as §1, §2, §3, §4, §5

[9] = tested on: green foxtail (Setaria viridis); assay: Postemergence herbicidal activity, green foxtail; conditions: rate of application 0.3 Kg/Ha, rated after 12-17 days
Procedure: as §1, §2, §3, §4, §5

[10] = tested on: common chickweed (Stellaria media); assay: Preemergence herbicidal activity, chickweed; conditions: Rate of Application 0.3 Kg/Ha, examined after 12-17 days
Procedure: as §1, §2, §3, §4, §5

[11] = tested on: morningglory (Ipomea lacunosa or Ipomea hederacea); assay: Preemergence herbicidal activity, morningglory; conditions: Rate of Application 0.3 Kg/Ha, examined after 12-17 days
Procedure: as §1, §2, §3, §4, §5

[12] = tested on: Johnsongrass (Sorghum halepense); assay: Preemergence herbicidal activity, johnsongrass; conditions: Rate of Application 0.3 Kg/Ha, examined after 12-17 days
Procedure: as §1, §2, §3, §4, §5

[13] = tested on: common cocklebur (Xanthium strumarium L.); assay: Preemergence herbicidal activity, cocklebur; conditions: Rate of Application 0.3 Kg/Ha, examined after 12-17 days
Procedure: as §1, §2, §3, §4, §5

[14] = tested on: velvetleaf (Abutilon theophrasti); assay: Preemergence herbicidal activity, velvetleaf; conditions: Rate of Application 0.3 Kg/Ha, examined after 12-17 days
Procedure: as §1, §2, §3, §4, §5

[15] = tested on: velvetleaf (Abutilon theophrasti); assay: Postemergence herbicidal activity, velvetleaf; conditions: rate of application 0.3 Kg/Ha, rated after 12-17 days
Procedure: as §1, §2, §3, §4, §5

[16] = tested on: soybean (Glycine max var. Winchester); assay: Postemergence herbicidal activity, soybean; conditions: rate of application 0.3 Kg/Ha, rated after 12-17 days
Procedure: as §1, §2, §3, §4, §5

[17] = tested on: field corn (Zea mays var. Pioneer 3732); assay: Preemergence herbicidal activity, corn; conditions: Rate of Application 0.3 Kg/Ha, examined after 12-17 days
Procedure: as §1, §2, §3, §4, §5

[18] = tested on: common chickweed (Stellaria media); assay: Postemergence herbicidal activity, chickweed; conditions: rate of application 0.3 Kg/Ha, rated after 12-17 days
Procedure: as §1, §2, §3, §4, §5

Row | Structure (SMILES) | Postemergence herbicidal activity (% control) IPOSS [1] [%] | PREEMERGENCE HERBICIDAL ACTIVITY (% CONTROL) SETVI [2] [%] | Postemergence herbicidal activity (% control) SORHA [3] [%] | PREEMERGENCE HERBICIDAL ACTIVITY (% CONTROL) WHT [4] [%] | Postemergence herbicidal activity (% control) XANPE [5] [%] | Postemergence herbicidal activity (% control) WHT [6] [%] | Postemergence herbicidal activity (% control) CRN [7] [%] | PREEMERGENCE HERBICIDAL ACTIVITY (% CONTROL) SOY [8] [%] | Postemergence herbicidal activity (% control) SETVI [9] [%] | PREEMERGENCE HERBICIDAL ACTIVITY (% CONTROL) STEME [10] [%] | PREEMERGENCE HERBICIDAL ACTIVITY (% CONTROL) IPOSS [11] [%] | PREEMERGENCE HERBICIDAL ACTIVITY (% CONTROL) SORHA [12] [%] | PREEMERGENCE HERBICIDAL ACTIVITY (% CONTROL) XANPE [13] [%] | PREEMERGENCE HERBICIDAL ACTIVITY (% CONTROL) ABUTH [14] [%] | Postemergence herbicidal activity (% control) ABUTH [15] [%] | Postemergence herbicidal activity (% control) SOY [16] [%] | PREEMERGENCE HERBICIDAL ACTIVITY (% CONTROL) CRN [17] [%] | Postemergence herbicidal activity (% control) STEME [18] [%]
1 | Cn1c(C(F)(F)F)cc(=O)n(-c2ccc(Cl)c3cc(C(=O)O)oc23)c1=O [Compound 266] | 60 | 30 | 40 | 30 | 10 | 40 | 60 | 50 | 40 | 0 | 70 | 30 | 0 | 40 | 50 | 60 | 60 | 10
2 | Cn1c(C(F)(F)F)cc(=O)n(-c2ccc(Cl)c3cc(C=O)oc23)c1=O [Compound 265] | 100 | 80 | 20 | 40 | 20 | 40 | 60 | 70 | 40 | 20 | 100 | 60 | 70 | 90 | 100 | 70 | 80 | 30
3 | CCCc1cc2c(Cl)cc(F)c(-n3c(=O)cc(C(F)(F)F)n(C)c3=O)c2o1 [Compound 223] | 100 | 100 | 100 | 50 | 100 | 40 | 90 | 100 | 100 | 100 | 100 | 100 | 90 | 100 | 100 | 95 | 80 | 100
4 | Cn1c(C(F)(F)F)cc(=O)n(-c2c(F)cc(Cl)c3cc(C(C)(C)NS(C)(=O)=O)oc23)c1=O [Compound 255] | 100 | 100 | 100 | 90 | 100 | 100 | 100 | 100 | 100 | 100 | 100 | 100 | 100 | 100 | 100 | 100 | 95 | 100
